Measurements published in patent US20200148682A1, “AKT ISOZYME-SPECIFIC COVALENT INHIBITORS DERIVED FROM REDOX-SIGNALING LIPIDS” (Cornell University, priority 2017, published 2020).

Tests used:
[1] = system: six other cultured cell lines (breast cancer lines not PTEN-null TNBC, fibroblast lines); test: Cell viability assay (AlamarBlue), six other cultured cell lines; type: cell-based; details: for toxicity and selectivity across cell lines: 3 days
Description: After this time, cells were lysed and analyzed by antibodies for phosphorylated T305 (pT305) of Akt3, Halo (Akt), and Actin (loading control). […] FIG. 23F is a graph showing proliferation curves. […] After this time, the number of viable cells was calculated using AlamarBlue®. Proliferation curves were fitted to the PI50 equation (EQN. 4). […] FIG. 23H is a graph showing the percentage of viable cells. […] The percentage of growth relative to DMSO-treated cells is shown for the 48 hour point and the 72 hour point. FIG. 23I is a schematic showing the different methods used to derive the data in 23H.
Indicated cells were plated in a 96-well plate containing the DMEM complete medium (see Example 11 for complete medium formulation, 100 μL per well) with a density of 3,000-5,000 cells per well for 12 hours followed by the addition of varying concentrations of inhibitors in rinse medium (100 μL). The cells were allowed to grow for 72 hours and 100 μL of the culture medium was removed from each well. This was followed by the addition of 10 μL AlamarBlue® reagent to each well. The fluorescence emission signals at 590 nm were read by Cytation 3 cell imaging multi-mode reader (BioTeK) using an excitation wavelength of 560 nm. Curve fitting and data analysis were performed using Prism software.

recombinant Akt3 = target: T1, recombinant Akt3 (Homo sapiens, UniProt Q9Y243); test: NADH-coupled Akt activity assay (progress curve analysis); type: biochemical
T1 construct: purchased Active Motif 31147
T1 sequence (Q9Y243 whole entry): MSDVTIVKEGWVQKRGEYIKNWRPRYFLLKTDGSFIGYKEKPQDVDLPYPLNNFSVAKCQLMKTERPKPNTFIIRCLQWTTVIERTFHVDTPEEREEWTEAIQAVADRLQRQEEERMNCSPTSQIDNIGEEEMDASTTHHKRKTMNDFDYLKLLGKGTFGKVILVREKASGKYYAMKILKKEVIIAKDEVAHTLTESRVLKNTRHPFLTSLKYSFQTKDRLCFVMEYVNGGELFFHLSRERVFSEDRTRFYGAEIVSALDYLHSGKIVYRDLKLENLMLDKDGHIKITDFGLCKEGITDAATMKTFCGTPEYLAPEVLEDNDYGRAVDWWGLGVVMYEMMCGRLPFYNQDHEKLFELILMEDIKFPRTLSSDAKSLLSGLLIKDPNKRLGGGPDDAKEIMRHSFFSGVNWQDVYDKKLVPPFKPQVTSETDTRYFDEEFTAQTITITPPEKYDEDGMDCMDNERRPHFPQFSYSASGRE
Text: FIGS. 20A-20H show the kinetic analysis of Akt3 covalent inhibition by MK-HNE, MK-FNE, and MK-dHNE. FIG. 20A is a schematic representation of the NADH-coupled kinetic assay to monitor the progress of Akt-catalyzed phosphorylation of the known peptide substrate, Crosstide (Akt substrate, cat. No. sc-471145, Santa Cruz). […] The solid curves are the best nonlinear fits of the data using EQN. 1. FIG. 20D is a graph showing a replot of kobs for the progress curve as a function of MK-HNE concentration. FIG. 20F is a graph showing a replot of kobs for the progress curve as a function of MK-dHNE concentration. The hyperbolic curve is the best nonlinear fit to EQN. 2. FIG. 20H is a graph showing kobs for the progress curve as a function of MK-FNE concentration fit to a cooperative binding equation using EQN 3. Inhibition of recombinant Akt3 ([…]) by MK-HNE, MK-dHNE, and MK-FNE was assayed by progress curve analysis: inhibitor was added to enzyme in assay buffer containing 100 nM Akt3 kinase, 100 μM Crosstide (Akt substrate, cat. No. sc-471145, Santa Cruz), 500 μM ATP, 4 mM TCEP, 5 mM phosphoenolpyruvate, pyruvate kinase (24-40 units/mL), lactate dehydrogenase (36-56 units/mL), 500 μM NADH and various concentrations of the inhibitor. All curves were background rate subtracted. Product formation was measured continuously for 6 min. Over this time, Akt3 activity was constant in the absence of the inhibitors.
To a 96-well plate with varying amounts of indicated inhibitors was added the kinetic assay mixture containing, in final concentrations, 50 mM HEPES, 100 mM NaCl, 10 mM MgCl2, 5 mM phosphoenolpyruvate, 500 μM NADH, 100 μM crosstide (the Akt substrate, cat. No. sc-471145, Santa Cruz), pyruvate kinase (24-40 units/mL), lactate dehydrogenase (36-56 units/mL), 4 mM TCEP, 500 μM ATP. […] The progress of phosphorylation was monitored by reading absorbance at 340 nm over the course of study. […]
To gain a more quantitative understanding of the covalent inhibitors, inhibition of Akt3 by MK-HNE in vitro was investigated. […] Loss of NADH was measured by decrease in A340 as a function of time. […]

SMILES | toxicity and selectivity across cell lines [1] | n (Hill coefficient) (recombinant Akt3; cooperative binding fit of kobs vs concentration) | kinact/KI (recombinant Akt3; recombinant Akt3, as stated in text) | PI50(MK-FNE)/PI50(MK-2206) ([1]; all but PTEN-null TNBC lines, except TSE) | PI50(MK-FNE)/PI50(MK-2206) ([1]; some lines) | inhibition profile of Akt3 (recombinant Akt3; progress curves)
NC1(c2ccc(-c3nc4ccn5c(=O)[nH]nc5c4cc3-c3ccccc3)cc2)CCC1 [MK-2206] | generally toxic to most lines | – | – | – | – | –
C#CCCCC(F)/C=C/C(=O)NC1(c2ccc(-c3nc4ccn5c(=O)[nH]nc5c4cc3-c3ccccc3)cc2)CCC1.Cl (stereo not shown) [MK-FNE, (E)-8-(4-(1-(4-Fluoronon-2-en-8-ynamido)cyclobutyl)phenyl)-3-oxo-9-phenyl-2,3-dihydro-[1,2,4]triazolo[3,4-f][1,6]naphthyridin-7-ium Chloride] | significantly selective against PTEN-null TNBC lines | 3.2 | ~10000 M⁻¹ s⁻¹ | greater than 2 | above 8 | –
C#CCCCC(O)/C=C/C(=O)NC1(c2ccc(-c3nc4ccn5c(=O)[nH]nc5c4cc3-c3ccccc3)cc2)CCC1.Cl (stereo not shown) [MK-HNE, (E)-8-(4-(1-(4-Hydroxynon-2-en-8-ynamido)cyclobutyl)phenyl)-3-oxo-9-phenyl-2,3-dihydro-[1,2,4]triazolo[3,4-f][1,6]naphthyridin-7-ium Chloride] | – | – | – | – | – | time-dependent inhibitor
